Laboratory results taken from PubChem BioAssay AID330 (DTP/NCI, 2004).
Where “and” joins values, the source holds several entries; their conditions need not be identical. Identical values can stand only once. Inconclusive results and toxic doses are left out. Rule for the calls: active = survival T/C of 150% or more; inactive = T/C below 125% in these data.

Tested on: P388 leukemia ip, CD2F1 mice, survival T/C
Assay: NCI In Vivo Anticancer Drug Screen. Data for tumor model P388 Leukemia (intraperitoneal) in CD2F1 (CDF1) mice
Conditions: endpoint: median survival time, higher = longer survival
Procedure, shortened: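 Mice carrying the transplanted tumor received test compound or vehicle. Survival was recorded in each group, and the value is the treated-group measurement divided by that of the vehicle-treated control group.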

[1] = dose: 50.0 mg/kg/injection, schedule: Q01DX005 (ip), vehicle: saline
[2] = dose: 50.0 mg/kg/injection, schedule: Q01DX009 (ip), vehicle: saline with Tween-80
[3] = dose: 100.0 mg/kg/injection, schedule: Q01DX009 (ip), vehicle: saline with Tween-80
[4] = dose: 50.0 mg/kg/injection, schedule: Q01DX005 (ip), vehicle: saline with Tween-80
[5] = dose: 100.0 mg/kg/injection, schedule: Q01DX005 (ip), vehicle: saline with Tween-80
[6] = dose: 200.0 mg/kg/injection, schedule: Q01DX005 (ip), vehicle: saline with Tween-80
[7] = dose: 25.0 mg/kg/injection, schedule: Q01DX009 (ip), vehicle: saline with Tween-80
[8] = dose: 25.0 mg/kg/injection, schedule: Q01DX009 (ip), vehicle: saline
[9] = dose: 50.0 mg/kg/injection, schedule: Q01DX009 (ip), vehicle: saline

Measured: T/C

CC1CC[P+](Cc2ccccc2)(c2ccccc2)CC1 (stereo not given)
inactive: dose: 1.56 mg/kg/injection, schedule: Q04DX002 (ip), vehicle: saline 98 % of control | dose: 3.13 mg/kg/injection, schedule: Q04DX002 (ip), vehicle: saline 95 % of control | dose: 6.25 mg/kg/injection, schedule: Q04DX002 (ip), vehicle: saline 90 % of control

Cc1cc(O)c2c(c1O)C(=O)C13C(=C2O)C(=O)C2C(O)C1C1C(O)C3C(=O)C3=C(O)c4c(O)cc(C)c(O)c4C(=O)C321 (stereo not given)
inactive: dose: 0.75 mg/kg/injection, schedule: Q01DX005 (ip), vehicle: saline with Tween-80 100 % of control and 106 % of control | dose: 0.78 mg/kg/injection, schedule: Q01DX009 (ip), vehicle: saline with Tween-80 116 % of control | dose: 1.5 mg/kg/injection, schedule: Q01DX005 (ip), vehicle: saline with Tween-80 111 % of control and 115 % of control | dose: 3.0 mg/kg/injection, schedule: Q01DX005 (ip), vehicle: saline with Tween-80 115 % of control

CC(CCN1CCOCC1)Nc1ccnc2cc(Cl)ccc12 (stereo not given)
inactive: dose: 12.5 mg/kg/injection, schedule: Q01DX005 (ip), vehicle: saline 98 % of control | dose: 25.0 mg/kg/injection, schedule: Q01DX005 (ip), vehicle: saline 102 % of control | [1] 107 % of control and 95 % of control

CC1CN(C(=O)/C=C/C(=O)OC2CCCCC2)CCN1C(=O)/C=C/C(=O)OC1CCCCC1 (stereo not given)
inactive: dose: 50.0 mg/kg/injection, schedule: Q01DX005 (ip), vehicle: Klucel (hydroxypropylcellulose) (HPC) 100 % of control | dose: 100.0 mg/kg/injection, schedule: Q01DX005 (ip), vehicle: Klucel (hydroxypropylcellulose) (HPC) 100 % of control | dose: 200.0 mg/kg/injection, schedule: Q01DX005 (ip), vehicle: Klucel (hydroxypropylcellulose) (HPC) 98 % of control

CN(C)c1ccc(NC(=O)c2ccccc2O)cc1
inactive: [2] 113 % of control | [3] 104 % of control | dose: 200.0 mg/kg/injection, schedule: Q01DX009 (ip), vehicle: saline with Tween-80 99 % of control

Cc1ccc(N2C(=O)CC3(CCCCC3)C2=O)cc1C
inactive: dose: 50.0 mg/kg/injection, schedule: Q01DX009 (ip), vehicle: Klucel (hydroxypropylcellulose) (HPC) 106 % of control | dose: 100.0 mg/kg/injection, schedule: Q01DX009 (ip), vehicle: Klucel (hydroxypropylcellulose) (HPC) 105 % of control | dose: 200.0 mg/kg/injection, schedule: Q01DX009 (ip), vehicle: Klucel (hydroxypropylcellulose) (HPC) 97 % of control

CN=C1NS(=O)(=O)c2ccccc21
inactive: [4] 93 % of control | [5] 108 % of control | [6] 97 % of control

COc1ccc(C2=C(Cl)C(=O)N(c3ccc(Cl)cc3)C(=O)C2(Cl)Cl)cc1
inactive: dose: 100.0 mg/kg/injection, schedule: Q04DX002 (ip), vehicle: Klucel (hydroxypropylcellulose) (HPC) 101 % of control | dose: 200.0 mg/kg/injection, schedule: Q04DX002 (ip), vehicle: Klucel (hydroxypropylcellulose) (HPC) 94 % of control | dose: 400.0 mg/kg/injection, schedule: Q04DX002 (ip), vehicle: Klucel (hydroxypropylcellulose) (HPC) 97 % of control

CN1C(=O)C=CC1=O
inactive: dose: 0.5 mg/kg/injection, schedule: Q01DX009 (ip), vehicle: saline 96 % of control | dose: 1.0 mg/kg/injection, schedule: Q01DX009 (ip), vehicle: saline 103 % of control | dose: 2.0 mg/kg/injection, schedule: Q01DX009 (ip), vehicle: saline 100 % of control | dose: 4.0 mg/kg/injection, schedule: Q01DX009 (ip), vehicle: saline 101 % of control

[I][Ga]([I])[I]
inactive: [7] 116 % of control | [2] 111 % of control | [3] 100 % of control | dose: 100.0 mg/kg/injection, schedule: Q04DX003 (ip), vehicle: saline sonified 100 % of control

CN(C)[C@@H]1C(=O)C(C(=O)NCNC2CC(C)(C)N(O)C(C)(C)C2)=C(O)C2(O)C(=O)C3=C(O)c4c(O)cccc4[C@@](C)(O)C3CC12 (stereo not given in full)
inactive: dose: 100.0 mg/kg/injection, schedule: Q01DX001 (ip), vehicle: saline 105 % of control | dose: 200.0 mg/kg/injection, schedule: Q01DX001 (ip), vehicle: saline 89 % of control | dose: 400.0 mg/kg/injection, schedule: Q01DX001 (ip), vehicle: saline 91 % of control

CCN(CC)c1nc(Cl)nc(N(CC)CC)n1
inactive: dose: 25.0 mg/kg/injection, schedule: Q01DX005 (ip), vehicle: saline with Tween-80 99 % of control and 97 % of control | [4] 103 % of control [middle of 4 runs] | [5] 106 % of control and 101 % of control and 107 % of control | [6] 113 % of control [middle of 4 runs] | dose: 400.0 mg/kg/injection, schedule: Q01DX005 (ip), vehicle: saline with Tween-80 100 % of control

CCC[C@@H]1[C@@H](CCC)N1C(=N)OCC
inactive: dose: 12.5 mg/kg/injection, schedule: Q01DX005 (ip), vehicle: suspension in saline 99 % of control | dose: 25.0 mg/kg/injection, schedule: Q01DX005 (ip), vehicle: suspension in saline 106 % of control | [1] 103 % of control | dose: 50.0 mg/kg/injection, schedule: Q01DX005 (ip), vehicle: suspension in saline 106 % of control

COC(=O)C1CCCC(Sc2ccccc2)C1=O (stereo not given)
inactive: [7] 101 % of control | [2] 101 % of control | [3] 109 % of control

Cc1c2c(ccc3ccccc32)c[n+]2ccccc12
inactive: dose: 6.25 mg/kg/injection, schedule: Q04DX003 (ip), vehicle: other 105 % of control | dose: 6.25 mg/kg/injection, schedule: Q04DX003 (ip), vehicle: saline 109 % of control | dose: 12.5 mg/kg/injection, schedule: Q04DX003 (ip), vehicle: other 105 % of control | dose: 12.5 mg/kg/injection, schedule: Q04DX003 (ip), vehicle: saline 109 % of control

COC1=CC2CCN3C=C(C#N)C(C#N)CC3C2C=C1OC (stereo not given)
inactive: [4] 95 % of control | [5] 111 % of control | [6] 111 % of control

CCCCCCc1c(C#N)c(S)[nH]c(=S)c1C#N
inactive: dose: 12.5 mg/kg/injection, schedule: Q01DX009 (ip), vehicle: saline 95 % of control | [8] 106 % of control | [9] 106 % of control and 96 % of control

COc1cc2cnc(-c3ccc(Cl)c(Cl)c3)cc2cc1OC
inactive: [8] 100 % of control | [9] 97 % of control | dose: 100.0 mg/kg/injection, schedule: Q01DX009 (ip), vehicle: saline 89 % of control

Cn1nc2c(c1-c1cccnc1)CCCc1ccccc1-2
inactive: dose: 12.5 mg/kg/injection, schedule: Q01DX009 (ip), vehicle: other 113 % of control | dose: 25.0 mg/kg/injection, schedule: Q01DX009 (ip), vehicle: other 110 % of control | dose: 50.0 mg/kg/injection, schedule: Q01DX009 (ip), vehicle: other 110 % of control | dose: 100.0 mg/kg/injection, schedule: Q01DX009 (ip), vehicle: other 99 % of control | dose: 200.0 mg/kg/injection, schedule: Q01DX009 (ip), vehicle: other 100 % of control

Cn1nnnc1NC#N
inactive: dose: 100.0 mg/kg/injection, schedule: Q01DX001 (ip), vehicle: Klucel (hydroxypropylcellulose) (HPC) 107 % of control | dose: 200.0 mg/kg/injection, schedule: Q01DX001 (ip), vehicle: Klucel (hydroxypropylcellulose) (HPC) 113 % of control | dose: 400.0 mg/kg/injection, schedule: Q01DX001 (ip), vehicle: Klucel (hydroxypropylcellulose) (HPC) 108 % of control

Cc1nn(-c2ccccc2)nc1C(=O)Nc1ccc2[nH]ncc2c1
inactive: dose: 60.0 mg/kg/injection, schedule: Q01DX005 (ip), vehicle: saline with Tween-80 91 % of control | dose: 120.0 mg/kg/injection, schedule: Q01DX005 (ip), vehicle: saline with Tween-80 94 % of control | dose: 240.0 mg/kg/injection, schedule: Q01DX005 (ip), vehicle: saline with Tween-80 86 % of control

NN1C(=O)C2C3C=CC(O3)C2C1=O (stereo not given)
inactive: [1] 98 % of control | dose: 100.0 mg/kg/injection, schedule: Q01DX005 (ip), vehicle: saline 98 % of control | dose: 200.0 mg/kg/injection, schedule: Q01DX005 (ip), vehicle: saline 100 % of control
